Reference: ChEMBL document CHEMBL1154051, “Analysis of binding parameters of HIV-1 integrase inhibitors: correlates of drug inhibition and resistance” (Bioorg Med Chem, 2009)

Target: Human immunodeficiency virus type 1 integrase (Human immunodeficiency virus 1, UniProt Q7ZJM1)
Test: Inhibition of HIV1 integrase strand transfer activity

Sequence of Human immunodeficiency virus type 1 integrase (Q7ZJM1 whole entry): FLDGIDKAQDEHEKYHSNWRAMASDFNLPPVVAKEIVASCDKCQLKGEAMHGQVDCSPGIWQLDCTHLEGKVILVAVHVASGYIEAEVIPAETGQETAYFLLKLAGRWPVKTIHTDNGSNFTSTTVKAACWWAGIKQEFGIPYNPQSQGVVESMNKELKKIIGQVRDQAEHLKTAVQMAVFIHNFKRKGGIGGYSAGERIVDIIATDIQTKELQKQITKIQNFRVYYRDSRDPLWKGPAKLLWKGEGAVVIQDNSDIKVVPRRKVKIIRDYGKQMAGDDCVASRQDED

Row | Compound | IC50 [nM]
1 | O=C1c2c(c(C(=O)N3CCOCC3)c3cccnc3c2O)CN1Cc1ccc(F)cc1 | 40
2 | CN(C)S(=O)(=O)Oc1c2c(c(O)c3ncccc13)C(=O)N(Cc1ccc(F)cc1)C2 | 250
3 | O=C1c2c(c(-c3c(F)cccc3F)c3cccnc3c2O)CN1Cc1ccc(F)cc1 | 330
4 | O=C(O)/C(O)=C/C(=O)c1cccc(OCc2ccccc2)c1 | 350
5 | O=C(O)/C(O)=C/C(=O)c1cccc(Br)c1 | 2500
6 | [N-]=[N+]=NCc1cccc(C(=O)/C=C(\O)C(=O)O)c1 | 330
7 | O=C(O)/C(O)=C/C(=O)c1cccc(Cc2cccc(F)c2)c1 | 250
8 | CN1CCN(c2cc(C(=O)NCc3ccc(F)cc3)c(O)c3ncccc23)CC1 | 40
9 | CC(=O)N(C)c1cc(C(=O)NCc2ccc(F)cc2)c(O)c2ncccc12 | 20
10 | O=C(O)/C(O)=C/C(=O)c1cccn1Cc1ccc(-c2ccccc2)cc1 | 7500
11 | COc1cccc(Cc2cccc(C(=O)/C=C(\O)C(=O)O)c2)c1 | 140
12 | O=C(O)/C(O)=C/C(=O)c1cccc(Cc2cccc(Cl)c2)c1 | < 100
13 | [N-]=[N+]=NCc1cc(CN=[N+]=[N-])cc(C(=O)/C=C(\O)C(=O)O)c1 | 460
14 | O=C(/C=C(\O)C(=O)O)C(=O)c1cccc(C(=O)c2ccccc2)c1 | 2400
15 | CC(=O)N(C)CCNc1cc(C(=O)NCc2ccc(F)cc2)c(O)c2ncccc12 | 30
16 | O=C(O)/C(O)=C/C(=O)c1csc(Cc2ccccc2)c1 | 130

Further lines, results first:

Row | IC50 [nM] | Compound
17 | 30 | O=C(NCc1ccc(F)cc1)c1ccc2cccnc2c1O
18 | 90 | COc1cnc2c(O)c3c(c(OC)c2c1)CN(Cc1ccc(F)cc1)C3=O
19 | 100 | O=C(O)/C(O)=C/C(=O)c1cc(OCc2ccccc2)cc(OCc2ccccc2)c1
20 | 150 | COc1ccc(Cc2cccc(C(=O)/C=C(\O)C(=O)O)c2)cc1
21 | < 100 | O=C(O)/C(O)=C/C(=O)c1cccc(Cc2ccccc2F)c1
22 | 40 | CN(C)C(=O)C(=O)N(C)c1cc(C(=O)NCc2ccc(F)cc2)c(O)c2ncccc12
23 | 180 | O=C(O)/C(O)=C/C(=O)C1C=CSC1Cc1ccccc1 (stereo not drawn)
24 | 750 | O=C(O)/C(O)=C/C(=O)c1cccc(Cc2ccc(Cl)cc2)c1
25 | 20 | CC(=O)N1CCN(c2cc(C(=O)NCc3ccc(F)cc3)c(O)c3ncccc23)CC1
26 | < 100 | O=C(O)/C(O)=C/C(=O)c1cccc(Cc2ccccc2Cl)c1
27 | 11400 | O=C(O)/C(O)=C/C(=O)c1ccc(Oc2ccccc2)cc1
28 | 220 | O=C(O)/C(O)=C/C(=O)c1cccn1Cc1ccccc1
29 | 550 | O=C(O)/C(O)=C/C(=O)c1ccn(Cc2ccccc2)c1
30 | 500 | O=C(O)/C(O)=C/C(=O)c1ccc(Cc2ccccc2)s1
31 | 500 | O=C(O)/C(O)=C/C(=O)c1cccn1CCCc1ccccc1
32 | 5670 | O=C(O)/C(O)=C/C(=O)c1ccccc1Cc1ccccc1
33 | < 100 | O=C(O)/C(O)=C/C(=O)c1cccc(Cc2ccc(F)cc2)c1
